A word on the pKa: it is the pH at which an ionisable group is half protonated.

The subject of one series is liver ApoB mRNA. Nature of the series: Liver ApoB mRNA knockdown by 1:57 SNALP with APOB siRNA in mice. Format: in vivo, mouse. As to conditions: for ApoB silencing activity (liver ApoB mRNA): 6:1 L:D, IV 0.1 mg/kg; for ApoB knockdown: similar study with 1:57 SNALP containing C2-TLinDMA (Example 16). As for the experimental part:
Each SNALP formulation was administered by intravenous (IV) injection at 0.1 mg/kg into female Balb/c mice (n=3 per group). Plasma total cholesterol and/or liver ApoB mRNA levels were evaluated at 48 hours after SNALP administration. For dose response studies, SNALP formulations were administered by IV injection at 0.01 mg/kg, 0.03 mg/kg, or 0.1 mg/kg into female Balb/c mice (n=3 per group). Liver ApoB mRNA levels were evaluated at 48 hours after SNALP administration.
1:57 SNALP formulations containing encapsulated APOB siRNA at a 6:1 lipid:drug (L:D) ratio were prepared with the following cationic lipids: (1) DLinDMA; (2) Linoleyl/Linolenyl DMA (“Lin/LenDMA”); (3) DPanDMA; (4) TLinDMA; (5) Linoleyl/C6:0 DMA (“Lin/6:0”); (6) C2-DPanDMA; (7) DLin-C2K-Pip (30H); and (8) DHep-C2K-DMA.
Each SNALP formulation was administered by intravenous (IV) injection at 0.1 mg/kg into female Balb/c mice (n=3 per group). Livers were colleted at 48 hours after SNALP administration and liver ApoB mRNA levels were evaluated by performing an ApoB/GAPDH QG assay. Table 2 provides a characterization of the SNALP formulations used in this in vivo study.
In another study, 1:57 SNALP formulations containing encapsulated APOB siRNA at a 6:1 L:D ratio were prepared with the following cationic lipids: (1) DLinDMA; (2) C2-DPanDMA; (3) DPan-C2K-DMA; (4) DPan-C3K-DMA; and (5) DPan-C1K6-DMA.
Each SNALP formulation was administered by intravenous (IV) injection at 0.1 mg/kg into female Balb/c mice (n=3 per group). Livers were colleted at 48 hours after SNALP administration and liver ApoB mRNA levels were evaluated by performing an ApoB/GAPDH QG assay. Table 3 provides a characterization of the SNALP formulations used in this in vivo study.
For dose response studies, SNALP formulations were administered by IV injection at 0.01 mg/kg, 0.033 mg/kg, or 0.1 mg/kg into female Balb/c mice (n=3 per group). Liver ApoB mRNA levels were evaluated at 48 hours after SNALP administration by a branched DNA assay (QuantiGene assay) to assess ApoB mRNA relative to the housekeeping gene GAPDH.

Series [1] in a line: TNS assay, apparent pKa of cationic lipid in 1:57 SNALP. The following applies: 1:57 SNALP formulation containing encapsulated APOB siRNA.
Method: 1:57 SNALP formulations containing encapsulated APOB siRNA were prepared as described in Section VI above with the following cationic lipids: (1) DLinDMA; (2) DLenDMA; (3) γ-DLenDMA (“g-DLenDMA”); (4) C2-DLinDAP; (5) DLinPip (4-OH); (6) DLinPip; (7) DLinPip (3-OH); (8) DLinDEA; (9) DDocDMA; (10) DAraDMA; (11) TLinDMA; (12) DLin-C2K Pip (30H); (13) DHep-C2K-DMA; (14) DPanDMA; (15) C2-DPanDMA (“DPan-C2-DMA”); (16) DPan-C2K-DMA; (17) DPan-C3K-DMA; (18) DPan-K6-DMA (“DPan-C1K6-DMA”); and (19) C2-TLinDMA.
The apparent pKa of the cationic lipids present in these SNALP formulations was determined using a 2-(p-toluidinyl)-naphthalene-6-sodium sulfonate (TNS) assay. TNS is a negatively-charged indicator of membrane potential that is electrostatically attracted to positively charged membranes (see, Bailey and Cullis, Biochemistry, 33 12573-80 (1994)). Subsequent adsorption to the lipid membrane results in the immediate environment of the TNS becoming more lipophilic, removing the water molecules that otherwise quench TNS fluorescence. As a result, TNS measures the surface potential of the particle, wherein the more positive the surface potential, the greater the level of fluorescence. The surface pKa values of each SNALP formulation were determined by varying the local pH in the presence of TNS. By plotting fluorescence versus pH, the pKa of the cationic lipid can be estimated in the particle as the pH where fluorescence equals 50% of total fluorescence.
The nature of series [2]: Characterization of SNALP formulations (size, polydispersity, encapsulation). Format: physicochemical. As to conditions: Table 5; for Initial Encaps. (%): 7:54 SNALP (PEG750-C-DMA 6.76 | cationic 54.06 | Chol 32.43 | DPPC 6.75 mol %) with PLK-1 siRNA; for Finished Product Encaps. (%) / Finished Product Poly / Finished Product Z-Avg (nm): 7:54 SNALP with PLK-1 siRNA. The method, then:
In the context of nucleic acids, full encapsulation may be determined by performing a membrane-impermeable fluorescent dye exclusion assay, which uses a dye that has enhanced fluorescence when associated with nucleic acid. Specific dyes such as OliGreen® and RiboGreen® (Invitrogen Corp.; Carlsbad, Calif.) are available for the quantitative determination of plasmid DNA, single-stranded deoxyribonucleotides, and/or single- or double-stranded ribonucleotides. Encapsulation is determined by adding the dye to a liposomal formulation, measuring the resulting fluorescence, and comparing it to the fluorescence observed upon addition of a small amount of nonionic detergent. Detergent-mediated disruption of the liposomal bilayer releases the encapsulated nucleic acid, allowing it to interact with the membrane-impermeable dye. Nucleic acid encapsulation may be calculated as E=(Io−I)Io, where I and Io refer to the fluorescence intensities before and after the addition of detergent (see, Wheeler et al., Gene Ther., 6:271-281 (1999)). […]
Each SNALP formulation was administered by intravenous (IV) injection at 3 mg/kg into Scid mice containing Hep3B tumors (n=4 per group). Tumor tissue was colleted at 24 hours after SNALP administration and tumor PLK-1 mRNA levels were evaluated by performing a PLK-1/GAPDH QG assay. Table 5 provides a characterization of the SNALP formulations used in this in vivo study.

The mark [3] stands for this setting: Example 16, FIG. 8, 1:57 SNALP, female Balb/c mice, 48 hours, ApoB/GAPDH QG assay.
Setting [4] is: Example 16 second study, FIG. 9, 1:57 SNALP, female Balb/c mice, 48 hours.

In the case of `CCCCCCCC/C=C/CCCCCCCC1(CCCCCCC/C=C/CCCCCCCC)OCC(CCN(C)C)O1` (stereo not shown) [DHep-C2K-DMA], in the series with liver ApoB mRNA (setting [3]), the “ApoB silencing activity (liver ApoB mRNA)” value (from here on “ApoB silencing activity”) is listed as “comparable to DLinDMA with respect to silencing activity”. Further, the pKa in series [1] is about 6.05.

With `CC/C=C\C/C=C\C/C=C\CCCCCCCCOC(COCCCCCCCC/C=C\C/C=C\CCCCC)CN(C)C` (stereo not shown) [Linoleyl/Linolenyl DMA], in the series on liver ApoB mRNA (Example 14, FIGS. 3-6, 1:57 SNALP with APOB siRNA, IV 0.1 mg/kg (dose response 0.01, 0.03, 0.1 mg/kg), female Balb/c mice, 48 hours), the “liver ApoB mRNA knockdown activity (silencing ApoB expression)” value is listed as “greater ApoB silencing activity compared to a SNALP formulation containing DLinDMA”. Besides, the “ApoB silencing activity” value in the series on liver ApoB mRNA (setting [3]) is recorded as “more potent silencing activity than DLinDMA”.

For `CCCCC/C=C\C/C=C\C/C=C\C/C=C\CCCCOCC(CN(C)C)OCCCC/C=C\C/C=C\C/C=C\C/C=C\CCCCC` (stereo not shown) [DAraDMA, 1,2-Diarachidonyloxy-(N,N-dimethyl)-propyl-3-amine], the pKa in series [1] is about 5.65.

For the molecule `CC(C)CCCC(C)CCCC(C)CCCC(C)CCC1(CCC(C)CCCC(C)CCCC(C)CCCC(C)C)OCC(CN(C)C)CO1` (stereo not shown) [DPan-C1K6-DMA], in series [2], the “Initial Encaps. (%)” value turned out to be 71%, the “Finished Product Encaps. (%)” value is 99%, the “Finished Product Poly” value is recorded as 0.06 and the “Finished Product Z-Avg (nm)” value is 80 nm. In addition, the pKa in series [1] is about 5.5.

Take `CC(C)CCCC(C)CCCC(C)CCCC(C)CCC1(CCC(C)CCCC(C)CCCC(C)CCCC(C)C)OCC(CCN(C)C)O1` (stereo not shown) [DPan-C2K-DMA]: in the series on liver ApoB mRNA (setting [4]), the “ApoB silencing activity” value is on record as “more potent compared to DLinDMA”. Besides, in series [2], the “Initial Encaps. (%)” value was found to be 84%, the “Finished Product Encaps. (%)” value is given as 100%, the “Finished Product Poly” value was determined as 0.08 and the “Finished Product Z-Avg (nm)” value is on record as 76 nm. In addition, the pKa in series [1] was about 5.95.

In the series with liver ApoB mRNA, `CCCCC/C=C\C/C=C\CCCCCCCCOCC(COCC(CCN(C)C)OCCCCCCCC/C=C\C/C=C\CCCCC)OCCCCCCCC/C=C\C/C=C\CCCCC` (stereo not shown) [Compound C2-TLinDMA] displayed an ApoB knockdown of 49%. Besides, in series [1], the pKa was about 5.85.

Regarding `CCCCC/C=C\C/C=C\CCCCCCCCOCC(CN(C)C)OCCCCCCCC/C=C\C/C=C\CCCCC` (stereo not shown) [DLinDMA, 1,2-dilinoleyloxy-N,N-dimethylaminopropane, reference compound], the ApoB knockdown in the series with liver ApoB mRNA amounted to 25%. For the same molecule, in series [2], the “Initial Encaps. (%)” value was 75%, the “Finished Product Encaps. (%)” value stood at 98%, the “Finished Product Poly” value is 0.08 and the “Finished Product Z-Avg (nm)” value is given as 74 nm.

For the molecule `CCCCC/C=C\C/C=C\CCCCCCCCC1(CCCCCCCC/C=C\C/C=C\CCCCC)OCC(CCN2CCCC(O)C2)O1` (stereo not shown) [DLin-C2K Pip (30H)], the pKa in series [1] was about 6.05.

As for `CC(C)CCCC(C)CCCC(C)CCCC(C)CCC1(CCC(C)CCCC(C)CCCC(C)CCCC(C)C)OCC(CCCN(C)C)O1` (stereo not shown) [DPan-C3K-DMA], the “ApoB silencing activity” value in the series with liver ApoB mRNA (setting [4]) is reported as “more potent compared to DLinDMA”. In series [2], the “Initial Encaps. (%)” value was 86%, the “Finished Product Encaps. (%)” value amounted to 100%, the “Finished Product Poly” value came out at 0.06 and the “Finished Product Z-Avg (nm)” value was 81 nm. Besides, in series [1], the pKa was about 6.25.

Take `CCCCC/C=C\C/C=C\C/C=C\CCCCCC1(CCCCC/C=C\C/C=C\C/C=C\CCCCC)OCC(CCN(C)C)O1` (stereo not shown) [g-DLen-C2K-DMA]: the KD50 value result with liver ApoB mRNA (Example 17, FIG. 10, liver ApoB mRNA knockdown dose response) was “identical KD50 value compared to a SNALP formulation containing C2K”.

Take `CC/C=C\C/C=C\C/C=C\C/C=C\C/C=C\C/C=C\CCCOCC(CN(C)C)OCCC/C=C\C/C=C\C/C=C\C/C=C\C/C=C\C/C=C\CC` (stereo not shown) [DDocDMA, 1,2-Didocosahexaenyloxy-(N,N-dimethyl)-propyl-3-amine]: the pKa in series [1] is about 5.65.

Take `CC/C=C\C/C=C\C/C=C\CCCCCCCCC1(CCCCCCCC/C=C\C/C=C\C/C=C\CC)OCC(CCN(C)C)O1` (stereo not shown) [DLen-C2K-DMA]: the “liver ApoB mRNA knockdown activity” value with liver ApoB mRNA (Example 17, FIG. 10, 1:57 SNALP, IV 0.01, 0.033 or 0.1 mg/kg, female Balb/c mice, 48 hours, QuantiGene assay vs GAPDH) is “considerable potency in silencing ApoB mRNA expression”.

In the case of `CCCCC/C=C\C/C=C\CCCCCCCCC1(CCCCCCCC/C=C\C/C=C\CCCCC)OCC(CN(C)C)O1` (stereo not shown) [DLin-C1K-DMA, reference compound], in series [2], the “Initial Encaps. (%)” value came to 56%, the “Finished Product Encaps. (%)” value was found to be 98%, the “Finished Product Poly” value amounted to 0.05 and the “Finished Product Z-Avg (nm)” value is given as 84 nm.
